Results as given in patent US6066485A, “Growth factor inducible serine/threonine phosphatase fin13” (New York University, priority 1997, dated 2000).
Read-outs that look alike come from different tables or passages of the source.

Assays:
FIN13 mRNA [1] = test: FIN13 mRNA in ovaries of mice stimulated with DES; format: in vivo; conditions: mouse
Experimental: Northern analysis. RNA was electrophoresed on a 1% formaldehyde agarose gel, transferred overnight in 20×SSC to Genescreen-Plus nylon filters (Du Pont) and fixed by u.v. crosslinking. Filters were prehybridized, hybridized with radiolabeled cDNA probes and washed under standard conditions. To stimulate folliculogensis, immature mice (3 weeks) were injected subcutaneously with diethylstilbesterol (DES) or vehicle essentially as described previously (Guthridge et al., Growth Factors, 7:15 (1992)), and RNA was prepared from ovaries four days after stimulation.

his-FIN13 = target: T1, his-FIN13 (Mus musculus, UniProt Q61074); test: Phosphatase assay of bacterially expressed his-FIN13 with 32P-labelled casein; format: biochemical
T1 construct: Purified his-tagged full length FIN13 (his-FIN13); made in house; host or cells: E. coli BL21(DE3)
T1 sequence (Q61074 151-542 limits assumed): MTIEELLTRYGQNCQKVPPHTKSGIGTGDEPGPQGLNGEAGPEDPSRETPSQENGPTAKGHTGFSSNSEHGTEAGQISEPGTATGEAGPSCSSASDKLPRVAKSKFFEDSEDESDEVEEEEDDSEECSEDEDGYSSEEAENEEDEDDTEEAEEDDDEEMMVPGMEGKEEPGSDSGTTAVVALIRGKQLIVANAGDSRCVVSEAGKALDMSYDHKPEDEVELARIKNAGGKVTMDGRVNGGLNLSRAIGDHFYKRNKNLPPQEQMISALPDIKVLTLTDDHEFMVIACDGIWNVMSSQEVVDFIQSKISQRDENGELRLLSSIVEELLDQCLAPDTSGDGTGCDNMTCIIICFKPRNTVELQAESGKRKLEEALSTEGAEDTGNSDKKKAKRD
Experimental: FIG. 5. Phosphatase activity of bacterially expressed FIN13. Purified his-tagged full length FIN13 (his-FIN13) or his-tagged catalytic domain FIN13 (his-FIN13-cat) were examined for their ability to dephosphorylate ^32 P-labelled cascin in vitro as described in the Materials and Methods. Phosphatase assays were performed in the absence of his-FIN13 (No FIN13; open bar) or with his-FIN13 incubated in the presence of 10 mM of the indicated divalent cation (MgCl2, ZnCl2, CaCl2 or MnCl2)(solid bars) or in the presence of the indicated mM concentrations of MnCl2 (half-tone bars). +EDTA: indicates his-FIN13 incubated in the presence of 10 mM EDTA and 10 mM MnCl2. his-FIN13-cat was incubated in the presence of the indicated mM concentrations of MnCl2 (cross-hatched bars). his-FIN13 was also incubated in the presence of 1 μM okadaic acid (OA), 20 mg/ml poly L-lysine (PL-L), 20 mg/ml protamine sulfate (PS). All incubations were performed for 1 h at 30° C.
Preparation of ^32 P-labelled casein. Casein (10 mg)(Sigma) was labelled with ^32 P using 10U of the catalytic subunit of cAMP dependent protein kinase (Sigma) in 50 mM Tris-HCl pH 7.0, 0.1 mM EGTA, 10 mM Mg-acetate, 0.1% β-mercaptoethanol, and 0.5 mCi of ^32 PγATP for 12 h at 30° C. The reaction mixture was then precipitated at 4° C. in 20% TCA. Labelled casein was recovered by centrifugation, the pellet washed 5 times in 100% acetone and resuspended in 50 mM Tris-HCl, 0.1 mM EGTA.
Phosphatase assay. The phosphatase activity of purified FIN13 expressed in bacteria as a fusion protein with N- and C-terminal his-tags was assessed in vitro using ^32 P-labelled casein as a substrate. For preparation of his-FIN13 and his-FIN13-cat from bacteria, the BL21(DE3) strain transformed with pEThis-FIN13 or pEThis-FIN13-cat were induced with 0.2 mM IPTG for 2 h following which the cells were recovered by centrifugation, resuspended in column buffer (50 mM sodium phosphate, pH 8.0, 300 mM NaCl, 1 mM PMSF) and frozen overnight at -70° C. The bacteria were then lysed by sonication at 4° C. and the extract cleared by centrifugation. The supernatant was then adsorbed to Ni-NTA-agarose (Qiagen) at 4° C. for 1 h. The resin was then washed extensively in column buffer without PMSF and his-FIN13 or his-FIN13-cat were eluted using 25 mM Tris-HCl pH 7.2, 100 mM NaCl containing […] imidazole (Sigma). In addition, the phosphatase activity of FIN13 expressed in HeLa cells was also determined in an immune complex using ^32 P-labelled casein as a substrate. For preparation of immune complexes of myc-FIN13, HeLa cells were transfected with […] of pRKmyc-FIN13 or pRK5. Cells were lysed 24 h after transfection in lysis buffer (10 mM Na-phosphate pH 7.4, 100 mM NaCl, 1% TRITON X-100, 10 mM EDTA) also containing a protease/phosphatase inhibitor cocktail (1 mM PMSF, 1 μg/ml pepstatin, 1 μg/ml leupeptin, 1 μg/ml aprotinin, 10 mM Na-orthovanadate, 80 mM NaF, 80 mM β-glycerolphosphate, 10 μM okadaic acid). Cleared lysates (100 μg total protein) were immunoprecipitated with anti-myc monoclonal antibody (9E10) adsorbed to 30 μl protein G sepharose (Zymed) or anti-FIN13 antiserum adsorbed to 30 μl protein A sepharose (Zymed) for 1.5 h at 4° C. The anti-FIN13 polyclonal antiserum (630) was generated against the full length his-FIN13 expressed and purified from bacteria. The IPs were then washed 5 times with lysis buffer, once with 10 mM Tris-HCl pH 7.0, 100 mM NaCl and 5 mM MnCl2, and twice with phosphatase reaction buffer (10 mM Tris-HCl pH 7.0, 0.1 mM EGTA, 10 mM DTT and 10 mM MnCl2) containing 1 μM okadaic acid. Purified his-FIN13, his-FIN13-cat or myc-lPs were then examined for phosphatase activity by incubating the indicated FIN13 preparation in the presence of phosphatase reaction buffer containing ^32 P-labelled casein (1×10^5 cpm; approx. 1 μl) at 30° C. for up to 2 h.

myc-FIN13 = target: T2, myc-FIN13 (Mus musculus, UniProt Q61074); test: Phosphatase assay of myc-FIN13 immunoprecipitated from transfected HeLa cells; format: biochemical
T2 construct: in-frame with, and N-terminal to, the FIN13 open reading frame; expressed in transfected cells; host or cells: HeLa
T2 sequence (Q61074 151-542): T1 sequence (Q61074 151-542 limits assumed)
Experimental: FIGS. 6A-6C. Phosphatase activity and expression of FIN13 in mammalian cells. HeLa cells transfected with either pRK5 vector or pRKmyc-FIN13 (expressing myc-FIN13) and harvested 24 h later, were lysed in lysis buffer and cleared extracts ([…]) were immunoprecipitated with either anti-myc antibodies (9E10) or anti-FIN13 antiserum (630). IPs were then divided and subjected to either Western analysis for the detection of FIN13 expression or a phosphatase assay. For the detection of FIN13 (A), 1/4 of the IP was boiled in sample buffer and loaded onto a 10% polyacrylamide gel, electrophoresed and transferred to a nitrocellulose filter. Western blot analysis was performed using the 630 antiserum at 1:500 as described in Materials and Methods. For analysis of phosphatase activity (B), the ability of myc-FIN13 immunoprecipitates (1/8 of IP) to dephosphorylate ^32 P-labelled casein was examined in vitro in the presence of okadaic acid and MnCl2 as described in Materials and Methods. […]
Phosphatase assay. The phosphatase activity of purified FIN13 expressed in bacteria as a fusion protein with N- and C-terminal his-tags was assessed in vitro using ^32 P-labelled casein as a substrate. […] In addition, the phosphatase activity of FIN13 expressed in HeLa cells was also determined in an immune complex using ^32 P-labelled casein as a substrate. […]

FIN13 mRNA [2] = test: Northern analysis of FIN13 mRNA induction in NIH 3T3 cells; format: cell-based, mouse
Experimental: FIG. 4. Regulation of FIN13 (and other FINs) mRNA in response to FGF-4. NIH 3T3 cells were starved for 48 h in DMEM/0.5% CS and stimulated for the indicated times up to 24 h with 100 ng/ml FGF-4. A15 cells and NIH 3T3 cells growing asynchronously in the presence of DMEM/10% CS are indicated as A15 and 3T3 respectively. Total RNA (6 μg) was examined by Northern analysis with ^32 P-labelled cDNAs for the indicated FIN genes shown on the left. The position of 28S and 18S rRNA are indicated on the right.
(§1) Cell culture. Mouse NIH 3T3 cells and A15 cells were cultured in Dulbecco's modified Eagle's medium (DMEM) containing 10% calf serum (CS). A15 cells are a NIH 3T3 cell line transformed with a human genomic fragment of the FGF-4 gene and have been previously described (Delli Bovi and Basilico, 1987, Proc. Natl. Acad. Sci. USA 84:5660). Rat pheochromocytoma PC12 cells were cultured in DMEM containing 10% heat inactivated horse serum (HS) (Gemini Bioproducts), 5% fetal bovine serum (FBS) (Gemini Bioproducts). […] Greater than 90% of PC12 cells had differentiated after 96 h or FGF-4 or NGF treatment as determined by the induction of neurite-like processes. […]
A maximum induction of 6-fold following 18 h stimulation was observed. […] The effect of cycloheximide on the induction of FIN13 mRNA was evaluated as follows. […]

Protein phosphatase 2A = Protein phosphatase 2A (Homo sapiens, UniProt P67775); test: Protein phosphatase 2A control phosphatase assay; format: biochemical; conditions: 2 h, presence of okadaic acid
Chain of Protein phosphatase 2A (P67775 whole entry): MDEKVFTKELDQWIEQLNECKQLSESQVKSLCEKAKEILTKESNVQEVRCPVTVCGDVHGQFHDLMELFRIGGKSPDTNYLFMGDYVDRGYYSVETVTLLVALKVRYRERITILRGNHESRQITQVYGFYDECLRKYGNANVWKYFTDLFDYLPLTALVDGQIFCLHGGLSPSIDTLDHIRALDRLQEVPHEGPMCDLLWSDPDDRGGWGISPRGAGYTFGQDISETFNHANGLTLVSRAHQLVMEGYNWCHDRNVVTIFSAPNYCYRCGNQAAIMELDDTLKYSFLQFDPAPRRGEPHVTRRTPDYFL

FIN13 transcripts = test: Regulation of FIN13 transcripts in PC12 cells; format: cell-based, rat; conditions: starved PC12 cells
Experimental: as §1, with “Bioproducts). For stimulation with growth factors, NIH 3T3 cells were grown to 60-80% confluence, starved for 48 h in DMEM containing 0.5% CS and then stimulated with 50 ng/ml recombinant human FGF-4 or 10% CS for up to 24 h. Where indicated 10 μg/ml cycloheximide was added simultaneously with the growth factor. PC12 cells were starved for 48 h in DMEM containing 4.9 g/l glucose, 0.1% HS and 5% FBS for up to 24 h.” for “Bioproducts).”
Cells were starved for 48 h in 0.2% serum and then stimulated with either serum or FGF-4. […] Similar regulation of FIN13 was observed when starved PC12 cells were stimulated with FGF-4 with maximum expression detected at 12 h which decreased until 96 h.

Molecule: CC/C(=C(/CC)c1ccc(O)cc1)c1ccc(O)cc1 [DES, diethylstilbesterol]
- expression of fin13 mRNA in ovaries (FIN13 mRNA [1]): increases expression

Molecule: O=C(O)CN(CCN(CC(=O)O)CC(=O)O)CC(=O)O [EDTA]
- effect on his-FIN13 phosphatase activity (his-FIN13): abolished activity
- effect on FIN13 activity in 9E10 IPs (myc-FIN13; EDTA 10 mM): abolished

Molecule: C[C@@H]1C[C@@H]([C@H](O)CC2CC(=O)NC(=O)C2)C(=O)[C@@H](C)C1 [cycloheximide]
- induction of FIN13 mRNA by FGF-4 in presence of protein synthesis inhibitor (FIN13 mRNA [2]; 18 h FGF-4, 10 mg/ml cycloheximide): did not result in induction of FIN13

Molecule: C=C1[C@@H](O)[C@@H]2O[C@]3(CC[C@H](/C=C/[C@@H](C)[C@@H]4CC(C)=C[C@@]5(O[C@H](C[C@@](C)(O)C(=O)O)CC[C@H]5O)O4)O3)CC[C@H]2O[C@@H]1[C@@H](O)C[C@H](C)[C@H]1O[C@@]2(CCCCO2)CC[C@H]1C [okadaic acid]
- effect on PP2A activity (Protein phosphatase 2A): abolished
- effect on his-FIN13 phosphatase activity (his-FIN13; 1 μM okadaic acid): not inhibited

B1: FGF-4: recombinant human fibroblast growth factor 4 (protein, UniProt P08620 31-206, looked up)
Fibroblast growth factor 4: APTAPNGTLEAELERRWESLVALSLARLPVAAQPKEAAVQSGAGDYLLGIKRLRRLYCNVGIGFHLQALPDGRIGGAHADTRDSLLELSPVERGVVSIFGVASRFFVAMSSKGKLYGSPFFTDECTFKEILLPNNYNAYESYKYPGMFIALSKNGKTKKGNRVSPTMKVTHFLPRL
- time of maximum FIN13 expression (FIN13 transcripts): 12 h
- maximum induction of FIN13 mRNA (FIN13 mRNA [2]; 18 h stimulation of NIH 3T3 cells): 6 fold

B2: myc-FIN13: FIN13 N-terminally fused to the myc epitope, expressed from pRKmyc-FIN13 (protein)
chain: T1 sequence (Q61074 151-542 limits assumed)
- phosphatase activity of immunoprecipitate in vitro (myc-FIN13; IP with 9E10 or 630, okadaic acid and MnCl2 present): exhibited phosphatase activity
